Measured values from US20180171304A1, “CONTINUOUSLY BIOPRINTED MULTILAYER TISSUE STRUCTURE” (ASPECT BIOSYSTEMS LTD., priority 2015, published 2018).

System: muscle tube
Conditions: tube cultured for 14 days; contraction gradual over a 40 minute time period; FIG. 2
Excerpt: In one embodiment, described herein are multi-layered tubes of muscle tissue. The tubes are created using a layer-by-layer deposition process by which muscle cells are dispersed within a solidified biocompatible matrix and bioprinted in a continuous fiber. In one embodiment, the fiber is deposited in a ring-like pattern to form a layer. These layers are stacked to form tubes, the height of which may be varied in a controlled way by changing the number of layers. Preferably, the matrix composition is physiologically compatible such that it allows the muscle cells to fully differentiate into a contractile phenotype. At the time of bioprinting, the tube is not contractile. […]
After bioprinting, the muscle structure must be submersed in cell culture media and placed in a cell culture incubator with temperature and carbon dioxide level control. […] In the preferred embodiment contraction and relaxation are measured by visual observation of changes in the diameter of the tube. […] Alternatively, a camera with an appropriate level of magnification could be positioned above the smooth muscle tube such that video footage of the tube from a top down perspective is recorded. […] The change in area, radius, diameter or circumference of the muscle tube may be quantified. […]

## NCCc1c[nH]cn1 [histamine]
  contraction of muscle tube (smaller diameter in contracted state): initiate contraction
